Experimental data taken from the supplement of paper PMC10307832.

Legend:
Experiment in all cases: relative viability (nuclei count vs DMSO), 5 days (fraction); higher = more cells survive
Bosutinib + Pemetrexed = compound: COc1cc(Nc2c(C#N)cnc3cc(OCCCN4CCN(C)CC4)c(OC)cc23)c(Cl)cc1Cl [Bosutinib] + Nc1nc2[nH]cc(CCc3ccc(C(=O)N[C@@H](CCC(=O)O)C(=O)O)cc3)c2c(=O)[nH]1 [Pemetrexed] (partner 0.2 µM)
Outline: (§1)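 Medians of duplicate plates are given as relative viability. That measure is the nuclei count in treated wells divided by the count in vehicle wells. Counts were taken on 4× images of lung cancer cell lines in 1536-well plates, 5 days after pin-tool dosing the day after seeding with one drug alone or a fixed anchor-drug dose plus five library-drug doses (not always all listed) in √10 steps.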

Bosutinib + Decitabine = compound: COc1cc(Nc2c(C#N)cnc3cc(OCCCN4CCN(C)CC4)c(OC)cc23)c(Cl)cc1Cl [Bosutinib] + Nc1ncn([C@H]2C[C@H](O)[C@@H](CO)O2)c(=O)n1 [Decitabine] (partner 2 µM)
Outline: as §1

Bosutinib + Olaparib = compound: COc1cc(Nc2c(C#N)cnc3cc(OCCCN4CCN(C)CC4)c(OC)cc23)c(Cl)cc1Cl [Bosutinib] + O=C(c1cc(Cc2n[nH]c(=O)c3ccccc23)ccc1F)N1CCN(C(=O)C2CC2)CC1 [Olaparib] (partner 8 µM)
Outline: as §1

Bosutinib + Vorinostat = compound: COc1cc(Nc2c(C#N)cnc3cc(OCCCN4CCN(C)CC4)c(OC)cc23)c(Cl)cc1Cl [Bosutinib] + O=C(CCCCCCC(=O)Nc1ccccc1)NO [Vorinostat] (partner 1 µM)
Outline: as §1

Bosutinib + Alpelisib = compound: COc1cc(Nc2c(C#N)cnc3cc(OCCCN4CCN(C)CC4)c(OC)cc23)c(Cl)cc1Cl [Bosutinib] + Cc1nc(NC(=O)N2CCC[C@H]2C(N)=O)sc1-c1ccnc(C(C)(C)C(F)(F)F)c1 [Alpelisib] (partner 2 µM)
Outline: as §1

| Cell Line | relative viability (Bosutinib + Pemetrexed; first compound 0.01 µM) | relative viability (Bosutinib + Pemetrexed; first compound 0.03162 µM) | relative viability (Bosutinib + Pemetrexed; first compound 0.1 µM) | relative viability (Bosutinib + Pemetrexed; first compound 1 µM) | relative viability (Bosutinib + Decitabine; first compound 0.01 µM) | relative viability (Bosutinib + Decitabine; first compound 0.03162 µM) | relative viability (Bosutinib + Decitabine; first compound 0.1 µM) | relative viability (Bosutinib + Decitabine; first compound 1 µM) | relative viability (Bosutinib + Olaparib; first compound 0.01 µM) | relative viability (Bosutinib + Olaparib; first compound 0.03162 µM) | relative viability (Bosutinib + Olaparib; first compound 0.1 µM) | relative viability (Bosutinib + Olaparib; first compound 1 µM) | relative viability (Bosutinib + Vorinostat; first compound 0.01 µM) | relative viability (Bosutinib + Vorinostat; first compound 0.03162 µM) | relative viability (Bosutinib + Vorinostat; first compound 0.1 µM) | relative viability (Bosutinib + Vorinostat; first compound 1 µM) | relative viability (Bosutinib + Alpelisib; first compound 0.01 µM) | relative viability (Bosutinib + Alpelisib; first compound 0.03162 µM) | relative viability (Bosutinib + Alpelisib; first compound 0.1 µM) | relative viability (Bosutinib + Alpelisib; first compound 1 µM) |
| --- | --- | --- | --- | --- | --- | --- | --- | --- | --- | --- | --- | --- | --- | --- | --- | --- | --- | --- | --- | --- |
| NCI-H1651 | 0.529 | 0.678 | 0.643 | 0.569 | 0.511 | 0.711 | 0.688 | 0.625 | 0.184 | 0.189 | 0.184 | 0.201 | 0.548 | 0.636 | 0.646 | 0.569 | 0.928 | 0.961 | 0.854 | 0.734 |
| 201T | 0.283 | 0.302 | 0.324 | 0.369 | 0.892 | 0.874 | 0.848 | 0.821 | 0.829 | 0.884 | 0.888 | 0.76 | 0.941 | 1.04 | 1 | 0.894 | 1 | 1.02 | 1.01 | 0.909 |
| NCI-H3122 | 0.201 | 0.199 | 0.207 | 0.202 | 0.43 | 0.462 | 0.388 | 0.538 | 0.678 | 0.653 | 0.658 | 0.559 | 0.991 | 0.917 | 0.967 | 0.953 | 0.769 | 0.797 | 0.821 | 0.993 |
| A549 | – | – | – | – | 0.279 | 0.226 | 0.237 | 0.261 | 0.52 | 0.447 | 0.357 | 0.286 | – | – | – | – | 0.731 | 0.78 | 0.734 | 0.621 |
| NCI-H727 | – | – | – | – | 0.848 | 1.03 | 0.909 | 0.764 | 0.6 | 0.87 | 0.69 | 0.563 | 1.04 | 1.27 | 1.33 | 0.973 | 0.59 | 0.549 | 0.537 | 0.449 |
| NCI-H441 | 0.242 | 0.272 | 0.264 | 0.251 | 0.24 | 0.264 | 0.279 | 0.287 | 0.431 | 0.562 | 0.755 | 0.678 | 0.827 | 0.885 | 0.936 | 0.835 | 0.475 | 0.689 | 0.733 | 1.11 |
| HOP-62 | 0.297 | 0.414 | 0.317 | 0.317 | 0.208 | 0.215 | 0.209 | 0.253 | – | 0.395 | 0.451 | 0.435 | 0.641 | 0.687 | 0.682 | 0.652 | 0.977 | 1 | 1.1 | 0.889 |
| RERF-LC-KJ | 0.504 | 0.495 | 0.492 | 0.478 | 0.643 | 0.656 | 0.645 | 0.737 | 0.883 | 0.867 | 0.958 | 0.989 | 0.691 | 0.705 | 0.733 | 0.811 | 0.702 | 0.834 | 0.756 | 0.678 |
